Results on 17 molecules are retold here after patent US20230091225A1, “Bifunctional chimeric heterocyclic compounds for targeted degradation of androgen receptors and use thereof” (HINOVA PHARMACEUTICALS INC., priority 2019, published 2023).

Like-named read-outs stand apart in the source and are kept apart here. Some results are limits rather than exact numbers.

The IC50 is the concentration that inhibits the measured activity by half.

One experiment has as its system LNCaP/AR cells. As to the kind of experiment: Inhibition of proliferation of LNCaP/AR prostate cancer cells (CCK-8). In kind it is cell-based.
The next experiment concerns the target T1, androgen receptor (AR) (Homo sapiens, UniProt P10275).
T1 sequence (P10275 1-920): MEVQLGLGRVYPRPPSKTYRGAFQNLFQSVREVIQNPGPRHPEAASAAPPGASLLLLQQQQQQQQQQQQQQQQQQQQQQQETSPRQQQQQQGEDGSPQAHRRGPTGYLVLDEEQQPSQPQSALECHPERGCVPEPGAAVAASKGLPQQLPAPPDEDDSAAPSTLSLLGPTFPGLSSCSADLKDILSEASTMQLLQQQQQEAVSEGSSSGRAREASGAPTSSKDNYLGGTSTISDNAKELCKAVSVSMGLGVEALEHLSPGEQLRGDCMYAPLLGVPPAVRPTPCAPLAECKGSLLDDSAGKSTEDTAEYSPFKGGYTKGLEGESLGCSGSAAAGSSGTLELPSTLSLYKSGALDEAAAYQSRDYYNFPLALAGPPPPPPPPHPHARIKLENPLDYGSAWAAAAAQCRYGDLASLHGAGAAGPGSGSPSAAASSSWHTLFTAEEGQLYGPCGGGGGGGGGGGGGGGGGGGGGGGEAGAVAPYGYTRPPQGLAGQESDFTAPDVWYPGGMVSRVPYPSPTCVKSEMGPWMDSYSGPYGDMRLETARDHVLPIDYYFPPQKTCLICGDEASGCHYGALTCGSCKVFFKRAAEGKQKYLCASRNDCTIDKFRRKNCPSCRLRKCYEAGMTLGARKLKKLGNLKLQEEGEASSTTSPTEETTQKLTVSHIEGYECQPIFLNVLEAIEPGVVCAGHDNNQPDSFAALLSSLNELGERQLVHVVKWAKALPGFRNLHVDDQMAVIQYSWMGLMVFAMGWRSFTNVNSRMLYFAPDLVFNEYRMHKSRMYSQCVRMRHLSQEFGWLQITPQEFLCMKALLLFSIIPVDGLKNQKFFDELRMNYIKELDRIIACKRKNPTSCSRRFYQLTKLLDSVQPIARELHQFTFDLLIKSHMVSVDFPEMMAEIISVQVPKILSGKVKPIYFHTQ
Put plainly: Degradation of androgen receptor (AR) protein in VCaP cells by ELISA. In kind it is cell-based. Conditions: 16 h; for inhibition at 0.1 µM: read-out: % degradation. (In general: In an ELISA, binding on a coated surface is turned into a signal by an enzyme label.)

[1] abbreviates: proliferation of LNCap/AR cells, 6 days, CCK-8, read-out: IC50.
[2] abbreviates: percentage of degraded AR at 100 nM, VCaP cells, ELISA.
Setting [3] is: 144 h, proliferation of LNCap/AR cells, 6 days, CCK-8, read-out: IC50.

For the molecule `CC(C#Cc1ccc2c(c1)CN(C1C(C)(C)C(Oc3ccc(C#N)c(Cl)c3)C1(C)C)C2=O)N1CCN(c2cc3c(cc2F)C(=O)N(C2CCC(=O)NC2=O)C3=O)CC1` (stereo not shown) [Compound 199, 2-chloro-4-((1r,3r)-3-(5-(4-(2,6-dioxopiperidin-3-yl)-6-fluoro-1,3-dioxoisoindolin-5-yl)piperazin-1-yl)but-1-yn-1-yl)-1-oxoisoindolin-2-yl)-2,4,4-tetramethylcyclobutoxy)benzonitrile], in the experiment with LNCaP/AR cells (setting [1]), the IC50 is greater than 1000 nM. Further, the “% degradation” value at androgen receptor (AR) (setting [2]) is on record as “D (<25%)”.
For `Cc1ncsc1-c1ccc(C2(NC(=O)[C@H]3C[C@@H](O)CN3C(=O)[C@@H](NC(=O)COCCCCC#Cc3ccc(C(=O)N[C@H]4C(C)(C)[C@H](Oc5ccc(C#N)c(Br)c5)C4(C)C)cc3)C(C)(C)C)CC2)cc1` [Compound 9, (2R,4R)-1-((S)-2-(2-((6-(4-(((1R,3R)-3-(3-bromo-4-cyanophenoxy)-2,2,4,4-tetramethylcyclobutyl)carbamoyl)phenyl)hex-5-yn-1-yl)oxy)acetylamino)-3,3-dimethylbutyryl)-4-hydroxy-N-(1-(4-(4-methyl-5-yl)phenyl)cyclopropyl) pyrrolidine-2-carboxamide], in the experiment on LNCaP/AR cells (setting [3]), the IC50 is less than 100 nM. Besides, the inhibition at 0.1 µM at androgen receptor (AR) (setting [2]) was greater than 80%.
Regarding `N#Cc1ccc(O[C@H]2CC[C@H](N3Cc4nc(N5CCC(CN6CCN(c7cccc8c7C(=O)N(C7CCC(=O)NC7=O)C8=O)CC6)CC5)ccc4C3=O)CC2)cc1Cl` (stereo partly shown) [Compound 217], in the experiment on LNCaP/AR cells (setting [3]), the concentration for half-maximal inhibition (IC50) was greater than 1000 nM. On androgen receptor (AR) (setting [2]), the inhibition at 0.1 µM was less than 25%.
On to `[2H]C([2H])([2H])N(C(=O)c1ccc(N2CCC(CN3CCN(c4cc5c(cc4F)CN(C4CCC(=O)NC4=O)C5=O)CC3)CC2)nc1)[C@H]1C(C)(C)[C@H](Oc2ccc(C#N)c(Cl)c2)C1(C)C` (stereo partly shown) [Compound 215, N-((1r,3r)-3-(3-chloro-4-cyanophenoxy)-2,2,4,4-tetramethylcyclobutyl)-6-(4-((4-(2-(2,6-dioxopiperidin-3-yl)-6-fluoro-3-oxoisoindolin-5-yl)piperazin-1-yl)methyl)piperidin-1-yl)-N-(methyl-d3)nicotinamide], for which, in the experiment on LNCaP/AR cells (setting [3]), the IC50 is greater than 1000 nM. In addition, at androgen receptor (AR) (setting [2]), the inhibition at 0.1 µM is less than 25%.
For the molecule `Cc1ncsc1-c1ccc([C@@H](C)NC(=O)[C@H]2C[C@@H](O)CN2C(=O)[C@H](NC(=O)COCCCCCNc2ccc(C(=O)NC3C[C@]4(C)O[C@@]3(C)[C@@H]3C(=O)N(c5ccc(C#N)c(Cl)c5)C(=O)[C@@H]34)c(F)c2)C(C)(C)C)cc1` (stereo partly drawn) [Compound 20, (2R,4S)-1-((2R)-2-(2-((5-((4-(((3aS,4S,7S,7aR)-2-(3-chloro-4-benzonitrile)-4,7-dimethyl-1,3-dioxooctahydro-1H-4,7-epoxyisoindolin-5-yl)carbamoyl)-3-fluorophenyl)amino)pentyl)oxy)acetylamino)-3,3-dimethylbutyryl)-4-hydroxy-N-((R)-1-(4-(4-methylthiazol-5-yl)phenyl)ethyl)pyrrolidine-2-carboxamide], the IC50 in the experiment with LNCaP/AR cells (LNCaP/AR, 144 h) is less than 100 nM. Moreover, on androgen receptor (AR) (VCaP), the inhibition at 0.1 µM was in the range of 25 to 49%.
`N#Cc1ccc(O[C@H]2CC[C@H](N3Cc4nc(N5CC[C@@H](CN6CCN(c7cc8c(cc7F)C(=O)N(C7CCC(=O)NC7=O)C8)CC6)C5)ccc4C3=O)CC2)cc1Cl` (stereo partly shown) [Compound 55]: in the experiment on LNCaP/AR cells (setting [3]), the IC50 lay in the range of 100 to 500 nM. In addition, the inhibition at 0.1 µM on androgen receptor (AR) (setting [2]) lay within 25 to 49%.
In the case of `[2H]C([2H])([2H])N(C(=O)c1ccc(C#CCCCNC(=O)C2(C(=O)N[C@H](C(=O)N3C[C@H](O)C[C@H]3C(=O)N[C@@H](C)c3ccc(-c4scnc4C)cc3)C(C)(C)C)CC2)cc1)[C@H]1C(C)(C)[C@H](Oc2ccc(C#N)c(Cl)c2)C1(C)C` [Compound 28], the IC50 with LNCaP/AR cells (setting [3]) was less than 100 nM. Further, the inhibition at 0.1 µM at androgen receptor (AR) (setting [2]) is 25 to 49%.
The corresponding values for `CC1(C)[C@H](Oc2ccc(C#N)c(Cl)c2)C(C)(C)[C@H]1N1Cc2nc(N3CCC(CN4CCN(c5cc6c(cc5F)C(=O)N(C5CCC(=O)NC5=O)C6=O)CC4)CC3)ccc2C1=O` (stereo partly shown) [Compound 198] are 100 to 500 nM and 50 to 79%.
As for `Cc1ncsc1-c1ccc([C@H](C)NC(=O)[C@@H]2C[C@@H](O)CN2C(=O)[C@@H](NC(=O)COC2CN(CCC#Cc3ccc4c(c3)CN([C@H]3C(C)(C)[C@H](Oc5ccc(C#N)c(Cl)c5)C3(C)C)C4=O)C2)C(C)(C)C)cc1` [Compound 32, (2s,4r)-1-((s)-2-(2-((1-(4-(2-((1r,3r)-3-(3-chloro-4-cyanophenoxy)-2,2,4,4-tetramethylcyclobutyl)-1-oxoheteroin-5-yl)-3-butyne-1-yl)azetidine-3-yl)oxy)acetamido)-3,3-dimethylbutyryl)-4-hydroxy-N-((S)-1-(4-(4-methylthiazol-5-yl)phenyl)ethyl)pyrrolidine-2-carboxamide], the IC50 with LNCaP/AR cells (setting [3]) is less than 100 nM. Besides, on androgen receptor (AR) (setting [2]), the inhibition at 0.1 µM fell in the range of 50 to 79%.
The corresponding values for `Cc1ncsc1-c1ccc([C@H](CO)NC(=O)[C@@H]2C[C@@H](O)CN2C(=O)[C@@H](NC(=O)COCCCCC#Cc2ccc3c(c2)CN([C@H]2C(C)(C)[C@H](Oc4ccc(C#N)c(Cl)c4)C2(C)C)C3=O)C(C)(C)C)cc1` [Compound 48, (2S,4R)-1-((S)-2-(2-((6-(2-(((1r,3r)-3-(3-chloro-4-cyanophenoxy))-2,2,4,4-tetramethylcyclobutyl)-1-oxoisoindolin-5-yl)hex-5-yn-1-yl)oxy)acetamido)-3,3-dimethylbutyryl)-4-hydroxy-N-((R)-2-hydroxy-1-(4-(4-methylthiazol-5-yl)phenyl)ethyl)pyrrolidine-2-carboxamide] are less than 100 nM and greater than 80%.
The corresponding values for `Cc1ncsc1-c1ccc([C@H](C)NC(=O)[C@@H]2C[C@@H](O)CN2C(=O)[C@@H](NC(=O)COCC(C)OCC#Cc2ccc3c(c2)CN([C@H]2C(C)(C)[C@H](Oc4ccc(C#N)c(Cl)c4)C2(C)C)C3=O)C(C)(C)C)cc1` (stereo partly shown) [Compound 15] are less than 100 nM and 25 to 49%.
On to `Cc1ncsc1-c1ccc([C@H](C)NC(=O)[C@@H]2C[C@@H](O)CN2C(=O)[C@@H](NC(=O)COCCCCCNc2ccc3c(c2)CN([C@H]2C(C)(C)[C@H](Oc4ccc(C#N)c(Br)c4)C2(C)C)C3=O)C(C)(C)C)cc1` [Compound 433, (2S,4R)-1-((S)-2-(2-((5-((2-((1r,3r)-3-(3-bromo-4-cyanophenoxy)-2,2,4,4-tetramethylcyclobutyl)-1-oxoisoindolin-5-yl)amino)pentyl)oxy)acetylamino)-3,3-dimethylbutyryl)-4-hydroxy-N-((S)-1-(4-(4-methylthiazole5-yl)phenyl)ethyl) pyrrolidinyl-2-carboxamide], for which the IC50 in the experiment with LNCaP/AR cells (setting [3]) was greater than 1000 nM.
The same measure, in the same setting: the figure for `N#Cc1ccc(O[C@H]2CC[C@H](N3Cc4cc(N5CCC(CN6CCN(c7cc8c(cc7F)C(=O)N(C7CCC(=O)NC7=O)C8)CC6)CC5)ncc4C3=O)CC2)cc1Cl` (stereo partly shown) [Compound 313] is less than 100 nM.
In turn, `Cc1ncsc1-c1ccc([C@H](C)NC(=O)[C@@H]2C[C@@H](O)CN2C(=O)[C@@H](NC(=O)COCCOC(C)C#Cc2ccc3c(c2)CN([C@H]2C(C)(C)[C@H](Oc4ccc(C#N)c(Cl)c4)C2(C)C)C3=O)C(C)(C)C)cc1` (stereo partly shown) [Compound 37] registered an IC50 with LNCaP/AR cells (LNCaP/AR, 144 h) of less than 100 nM.
In the case of `CC(=O)O[C@@H]1C[C@@H](C(=O)N[C@@H](C)c2ccc(-c3scnc3C)cc2)N(C(=O)[C@@H](NC(=O)COCC2CCN(c3ccc4c(c3)CN([C@H]3C(C)(C)[C@H](Oc5ccc(C#N)c(Cl)c5)C3(C)C)C4=O)CC2)C(C)(C)C)C1` [Compound 410], the IC50 in the experiment on LNCaP/AR cells (setting [3]) is less than 100 nM.
`Cc1ncsc1-c1ccc([C@H](C)NC(=O)[C@@H]2C[C@@H](O)CN2C(=O)[C@@H](NC(=O)COCCCCn2cc(-c3ccc4c(c3)CN([C@H]3C(C)(C)[C@H](Oc5ccc(C#N)c(Cl)c5)C3(C)C)C4=O)nn2)C(C)(C)C)cc1` [Compound 30, (2s,4r)-1-((s)-2-(2-(4-(4-(2-((1r,3r)-3-(3-chloro-4-cyanophenoxy)-2,2,4,4-tetramethylcyclobutyl)-1-oxoisobutanol-5-yl)-1H-1,2,3-triazol-1-yl)butoxy)acetamido)-3,3-dimethylbutyryl)-4-hydroxy-N-((S)-1-(4-(4-methylthiazol-5-yl)phenyl)ethyl)pyrrolidine-2-carboxamide]: in the experiment with LNCaP/AR cells (setting [1]), the IC50 was in the range of 100 to 500 nM.
Consider `[2H]C1([2H])c2cc(C#CCCCOCC(=O)N[C@H](C(=O)N3C[C@H](O)C[C@H]3C(=O)N[C@@H](C)c3ccc(-c4scnc4C)cc3)C(C)(C)C)ccc2C(=O)N1[C@H]1C(C)(C)[C@H](Oc2ccc(C#N)c(Cl)c2)C1(C)C` [Compound 403], for which, in the experiment on LNCaP/AR cells (setting [3]), the IC50 was less than 100 nM.
